Measurements from patent publication US11578130B2, “Regulatable chimeric antigen receptor” (Novartis AG, priority 2013, dated 2023).

What was measured:
[1] = tested on: Jurkat cells with NFAT-LUC reporter (JNL); assay: Activation of CD19 RCAR with extracellular FKBP/FRB switch (half and full switches) by RAD001, NFAT luciferase; type: cell-based; conditions: extracellular half switch 1; 5 nM and 50 nM
Procedure: The RCAR constructs were expressed in a Jurkat reporter cell line. Jurkat cells with NFAT-LUC reporter (JNL) were grown to the density of 0.5×10^6/ml in Jurkat cell growth media with puromycin at 0.5 μg/ml. For each transfection 2.5×10^6 cells were spin down at 100 g for 10 minutes. Two μg of DNA per RCAR construct were used per transfection. Amaxa Nucleofector solution V and supplement I was mixed and 100 μl was added into the tube with DNA construct. The mixture was then added to the cells and transferred to the electroporation cuvette. Electroporation was done under setting X-001 using Amaxa Nucleofector II Device. 0.5 ml of growth media was added immediately after electroporation and the mixture were transferred into 2 ml growth media in one well of the 6-well plate.
After one hour, RAD001 compound was applied at various concentrations: 0 nM, 0.01 nM, 0.03 nM, 0.1 nM, 0.3 nM, 1 nM, 5 nM, and 50 nM. Tissue culture plate was coated with 5 μg/ml of anti anti-CD19 antibody or isotype control for 2 hrs, blocked with the blocking buffer (DPBS with 5% serum) for 1 hour. The transfected cells with or without Rad001 were resuspended and added to the target plate with 100 μl per well and incubated for 18 hrs. Luciferase One Glo reagent 100 μl was added per well. The samples were incubated for 5 min at 37° C. and then luminescence was measured using Envision plate reader.

H3N2 A/Victoria/210/2009 = assay: Clinical trial: hemagglutination inhibition titers and seroconversion, vaccine strain A/H3N2; type: in vivo, human
Procedure: The trial was observer-blind because the placebo in the RAD001 0.5 mg daily and 20 mg weekly cohorts differed slightly from the RAD001 tablets in those cohorts. […] The treatment duration for all cohorts was 6 weeks during which time subjects underwent safety evaluations in the clinic every 2 weeks. After subjects had been dosed for 4 weeks, RAD001 steady state levels were measured pre-dose and at one hour post dose. After completing the 6 week course of study drug, subjects were given a 2 week drug free break to reverse any possible RAD001-induced immunosuppression, and then were given a 2012 seasonal influenza vaccination (Agrippal®, Novartis Vaccines and Diagnostics, Siena, Italy) containing the strains H1N1 A/California/07/2009, H3N2 A/Victoria/210/2009, B/Brisbane/60/2008. Four weeks after influenza vaccination, subjects had serum collected for influenza titer measurements. Antibody titers to the 3 influenza vaccine strains as well as to 2 heterologous strains (A/H1N1 strain A/New Jersey/8/76 and A/H3N2 strain A/Victoria/361/11) were measured by standard hemagglutination inhibition assay (Kendal, A P et al. (1982) Concepts and procedures for laboratory-based influenza surveillance. Atlanta: Centers for Disease Control and Prevention B17-B35).
The ability of RAD001 to improve immune function in elderly volunteers was evaluated by measuring the serologic response to the 2012 seasonal influenza vaccine. The hemagglutination inhibition (HI) geometric mean titers (GMT) to each of the 3 influenza vaccine strains at baseline and 4 weeks after influenza vaccination are provided in Table 22. The primary analysis variable was the HI GMT ratio (4 weeks post vaccination/baseline). […] This endpoint was chosen because a 1.2-fold increase in the influenza GMT ratio induced by the MF-59 vaccine adjuvant was associated with a decrease in influenza illness (Iob, A et al. (2005) Epidemiol Infect 133:687-693).
Rates of seroconversion 4 weeks after influenza vaccination were also evaluated. Seroconversion was defined as the change from a negative pre-vaccination titer (i.e., HI titer <1:10) to post-vaccination HI titer ≥1:40 or at least 4-fold increase from a non-negative (≥1:10) pre-vaccination HI titer.

## CO[C@H]1C[C@@H]2CC[C@@H](C)[C@@](O)(O2)C(=O)C(=O)N2CCCC[C@H]2C(=O)O[C@H]([C@H](C)C[C@@H]2CC[C@@H](OCCO)[C@H](OC)C2)CC(=O)[C@H](C)/C=C(\C)[C@@H](O)[C@@H](OC)C(=O)[C@H](C)C[C@H](C)/C=C/C=C/C=C/1C [RAD001, (1R,9S,12S,15R,16E,18R,19R,21R,23S,24E,26E,28E,30S,32S,35R)-1,18-dihydroxy-12-{(1R)-2-[(1S,3R,4R)-4-(2-hydroxyethoxy)-3-methoxycyclohexyl]-1-methylethyl}-19,30-dimethoxy-15,17,21,23,29,35-hexamethyl-11,36-dioxa-4-aza-tricyclo[30.3.1.04,9]hexatriaconta-16,24,26,28-tetraene-2,3,10,14,20-pentaone]
[1]
  NFAT activity at the higher dosages of RAD001: no inhibition of activity was observed
H3N2 A/Victoria/210/2009; Baseline (2 weeks prior to influenza vaccination), RAD001 0.5 mg daily, N = 50
  HI GMT, A/H3N2: 106.8
H3N2 A/Victoria/210/2009; Baseline (2 weeks prior to influenza vaccination), RAD001 5 mg weekly, N = 49
  HI GMT, A/H3N2: 126.04
H3N2 A/Victoria/210/2009; Baseline (2 weeks prior to influenza vaccination), RAD001 20 mg weekly, N = 49
  HI GMT, A/H3N2: 137.1
H3N2 A/Victoria/210/2009; Intention to Treat Population, 0.5 mg, N = 48
  Percent of subjects with seroconversion to influenza 4 weeks after vaccination, H3N2: 27%
H3N2 A/Victoria/210/2009; Intention to Treat Population, 5 mg, N = 49
  Percent of subjects with seroconversion to influenza 4 weeks after vaccination, H3N2: 24%
H3N2 A/Victoria/210/2009; Intention to Treat Population, 20 mg, N = 48
  Percent of subjects with seroconversion to influenza 4 weeks after vaccination, H3N2: 25%
H3N2 A/Victoria/210/2009; RAD001 0.5 mg daily, N = 50
  GMT ratio (week 4 post vaccination/baseline), A/H3N2: 2.1
H3N2 A/Victoria/210/2009; RAD001 5 mg weekly, N = 49
  GMT ratio (week 4 post vaccination/baseline), A/H3N2: 2.0
H3N2 A/Victoria/210/2009; RAD001 20 mg weekly, N = 49
  GMT ratio (week 4 post vaccination/baseline), A/H3N2: 2.1
H3N2 A/Victoria/210/2009; Subjects with Baseline Titers <=40, 0.5 mg
  Percent of subjects with seroconversion to influenza 4 weeks after vaccination, H3N2: 64%
H3N2 A/Victoria/210/2009; Subjects with Baseline Titers <=40, 5 mg
  Percent of subjects with seroconversion to influenza 4 weeks after vaccination, H3N2: 53%
H3N2 A/Victoria/210/2009; Subjects with Baseline Titers <=40, 20 mg
  Percent of subjects with seroconversion to influenza 4 weeks after vaccination, H3N2: 71%
H3N2 A/Victoria/210/2009; Week 4 after influenza vaccination, RAD001 0.5 mg daily, N = 50
  HI GMT, A/H3N2: 194.4
H3N2 A/Victoria/210/2009; Week 4 after influenza vaccination, RAD001 5 mg weekly, N = 49
  HI GMT, A/H3N2: 223.0
H3N2 A/Victoria/210/2009; Week 4 after influenza vaccination, RAD001 20 mg weekly, N = 49
  HI GMT, A/H3N2: 223.0
